Details: Coaxial cylinder method

CCC [propane]
thermal conductivity [W/m/K]
Details	367.32 K	368.46 K
2968 kPa, Gas	–	0.03214
2972 kPa, Gas	–	0.03214
2978 kPa, Gas	–	0.03213
3000 kPa, Gas	–	0.03223
3030 kPa, Gas	–	0.03238
3100 kPa, Gas	–	0.03275
3150 kPa, Gas	–	0.03302
3200 kPa, Gas	–	0.03331
3250 kPa, Gas	–	0.0336
3300 kPa, Gas	–	0.03395
3350 kPa, Gas	–	0.03428
3400 kPa, Gas	–	0.03471
3500 kPa, Gas	–	0.03552
3575 kPa, Gas	–	0.03626
3650 kPa, Gas	–	0.03704
3700 kPa, Gas	–	0.03759
3720 kPa, Gas	–	0.03785
3730 kPa, Gas	–	0.03799
3740 kPa, Gas	–	0.0381
3750 kPa, Gas	–	0.03825
3755 kPa, Gas	–	0.03832
3765 kPa, Gas	–	0.03844
3775 kPa, Gas	–	0.03858
3785 kPa, Gas	–	0.03873
3790 kPa, Gas	–	0.03878
3800 kPa, Gas	–	0.03892
3850 kPa, Gas	–	0.03974
3900 kPa, Gas	–	0.04073
3950 kPa, Gas	–	0.04194
4000 kPa, Gas	–	0.04351
4038 kPa, Gas	–	0.04518
4060 kPa, Gas	–	0.04654
4066 kPa, Liquid	0.1808	–
4067 kPa, Liquid	0.1761	–
4068 kPa, Liquid	0.1712	–
4069 kPa, Liquid	0.1669	–
4070 kPa, Liquid	0.1627	–
4071 kPa, Liquid	0.1586	–
4072 kPa, Liquid	0.1546	–
4073 kPa, Liquid	0.1511	–
4074 kPa, Liquid	0.1475	–
4075 kPa, Liquid	0.1439	–
4076 kPa, Liquid	0.1405	–
4077 kPa, Liquid	0.1378	–
4078 kPa, Liquid	0.1345	–
4079 kPa, Liquid	0.1317	–
4080 kPa, Gas	–	0.04809
4080 kPa, Liquid	0.129	–
4081 kPa, Liquid	0.127	–
4082 kPa, Liquid	0.1249	–
4083 kPa, Liquid	0.123	–
4084 kPa, Liquid	0.121	–
4085 kPa, Liquid	0.1189	–
4086 kPa, Liquid	0.1166	–
4087 kPa, Liquid	0.115	–
4088 kPa, Liquid	0.1136	–
4089 kPa, Liquid	0.1118	–
4090 kPa, Liquid	0.1105	–
4091 kPa, Liquid	0.109	–
4092 kPa, Liquid	0.1085	–
4093 kPa, Liquid	0.1068	–
4094 kPa, Liquid	0.1051	–
4095 kPa, Liquid	0.1042	–
4096 kPa, Gas	–	0.04969
4096 kPa, Liquid	0.1034	–
4097 kPa, Liquid	0.1027	–
4098 kPa, Liquid	0.1021	–
4099 kPa, Gas	–	0.05013
4099 kPa, Liquid	0.1016	–
4100 kPa, Liquid	0.1007	–
4101 kPa, Liquid	0.09965	–
4102 kPa, Gas	–	0.0505
4102 kPa, Liquid	0.09856	–
4103 kPa, Liquid	0.09755	–
4104 kPa, Gas	–	0.05078
4104 kPa, Liquid	0.09655	–
4105 kPa, Liquid	0.09562	–
4106 kPa, Gas	–	0.05104
4106 kPa, Liquid	0.0947	–
4107 kPa, Liquid	0.0938	–
4108 kPa, Liquid	0.09296	–
4109 kPa, Liquid	0.09214	–
4110 kPa, Liquid	0.09124	–
4112 kPa, Gas	–	0.05196
4112 kPa, Liquid	0.08967	–
4114 kPa, Gas	–	0.05236
4114 kPa, Liquid	0.0892	–
4115 kPa, Gas	–	0.0525
4116 kPa, Gas	–	0.0527
4116 kPa, Liquid	0.08674	–
4117 kPa, Gas	–	0.05291
4118 kPa, Gas	–	0.05307
4118 kPa, Liquid	0.08545	–
4119 kPa, Gas	–	0.05335
4120 kPa, Gas	–	0.05349
4120 kPa, Liquid	0.08412	–
4121 kPa, Gas	–	0.05378
4122 kPa, Gas	–	0.05392
4122 kPa, Liquid	0.08294	–
4123 kPa, Gas	–	0.05418
4124 kPa, Gas	–	0.0565
4124 kPa, Liquid	0.08176	–
4125 kPa, Gas	–	0.0589
4126 kPa, Gas	–	0.06178
4126 kPa, Liquid	0.08067	–
4127 kPa, Gas	–	0.06494
4128 kPa, Gas	–	0.06863
4128 kPa, Liquid	0.07964	–
4129 kPa, Gas	–	0.07284
4130 kPa, Gas	–	0.07749
4130 kPa, Liquid	0.07867	–
4131 kPa, Gas	–	0.08276
4132 kPa, Gas	–	0.08878
4132 kPa, Liquid	0.07775	–
4133 kPa, Gas	–	0.09573
4134 kPa, Gas	–	0.1033
4134 kPa, Liquid	0.07688	–
4135 kPa, Gas	–	0.1122
4136 kPa, Gas	–	0.1221
4136 kPa, Liquid	0.07609	–
4137 kPa, Gas	–	0.1337
4138 kPa, Gas	–	0.1478
4138 kPa, Liquid	0.07523	–
4139 kPa, Gas	–	0.1619
4140 kPa, Gas	–	0.1793
4140 kPa, Liquid	0.07455	–
4141 kPa, Gas	–	0.2022
4142 kPa, Gas	–	0.214
4142 kPa, Liquid	0.0738	–
4143 kPa, Gas	–	0.2272
4144 kPa, Gas	–	0.241
4144 kPa, Liquid	0.07315	–
4145 kPa, Liquid	–	0.2612
4146 kPa, Liquid	0.0725	0.2405
4147 kPa, Liquid	–	0.2228
4148 kPa, Liquid	0.07187	0.2065
4149 kPa, Liquid	–	0.1933
4150 kPa, Liquid	0.07132	0.1809
4151 kPa, Liquid	–	0.1745
4152 kPa, Liquid	0.07076	0.1686
4153 kPa, Liquid	–	0.164
4154 kPa, Liquid	0.07028	0.1581
4155 kPa, Liquid	–	0.1533
4156 kPa, Liquid	0.06982	0.1489
4157 kPa, Liquid	–	0.1449
4158 kPa, Liquid	–	0.141
4159 kPa, Liquid	–	0.1373
4160 kPa, Liquid	0.06894	0.1338
4161 kPa, Liquid	–	0.1305
4162 kPa, Liquid	0.06852	0.1273
4163 kPa, Liquid	–	0.1243
4164 kPa, Liquid	0.06814	0.1214
4165 kPa, Liquid	–	0.12
4166 kPa, Liquid	0.06773	–
4168 kPa, Liquid	0.0674	–
4170 kPa, Liquid	0.06707	–
4172 kPa, Liquid	0.06674	–
4174 kPa, Liquid	0.06646	–
4176 kPa, Liquid	0.0662	–
4178 kPa, Liquid	0.06599	–
4180 kPa, Liquid	0.06574	–
4182 kPa, Liquid	0.06551	–
4184 kPa, Liquid	0.0653	–
4186 kPa, Liquid	0.06509	–
4188 kPa, Liquid	0.0649	–
4190 kPa, Liquid	0.06474	–
4192 kPa, Liquid	0.0647	–
4194 kPa, Liquid	0.06462	–
4196 kPa, Liquid	0.06458	–
4198 kPa, Liquid	0.06458	–
4200 kPa, Liquid	0.06456	–
4202 kPa, Liquid	0.06454	–
4204 kPa, Liquid	0.06452	–
4206 kPa, Liquid	0.0645	–
4208 kPa, Liquid	0.06448	–
4210 kPa, Liquid	0.06446	–
4212 kPa, Liquid	0.06444	–
4214 kPa, Liquid	0.06445	–
4216 kPa, Liquid	0.06443	–
4218 kPa, Liquid	0.06443	–
4220 kPa, Liquid	0.06439	–
4222 kPa, Liquid	0.06437	–
4224 kPa, Liquid	0.06435	–
4226 kPa, Liquid	0.06433	–
4228 kPa, Liquid	0.06435	–
4230 kPa, Liquid	0.06433	–
4232 kPa, Liquid	0.06431	–
4234 kPa, Liquid	0.06432	–
4236 kPa, Liquid	0.06432	–
4238 kPa, Liquid	0.0643	–
4240 kPa, Liquid	0.06428	–
4250 kPa, Liquid	0.06424	–
4260 kPa, Liquid	0.0642	–
4270 kPa, Liquid	0.06416	–
4280 kPa, Liquid	0.06413	–
4290 kPa, Liquid	0.06409	–
4300 kPa, Liquid	0.06407	–
4350 kPa, Liquid	0.06399	–
4400 kPa, Liquid	0.06399	–
4450 kPa, Liquid	0.06405	–
4500 kPa, Liquid	0.06413	–
4550 kPa, Liquid	0.06426	–
4600 kPa, Liquid	0.0644	–
4650 kPa, Liquid	0.06452	–
4700 kPa, Liquid	0.06466	–
4770 kPa, Liquid	0.06483	–
4800 kPa, Liquid	0.06498	–
4850 kPa, Liquid	0.06516	–
4900 kPa, Liquid	0.06532	–
4950 kPa, Liquid	0.06554	–
4976 kPa, Liquid	0.06564	–
5077 kPa, Liquid	0.06597	–

From the NIST ThermoML archive (doi:10.1016/j.fluid.2017.06.019)
